How the values were obtained:
[1] = target: Phosphatidylinositol 4,5-bisphosphate 3-kinase catalytic subunit alpha isoform (Homo sapiens, UniProt P42336)
Description: Inhibition of PI3Kalpha (unknown origin) using PIP2 as substrate incubated for 1 hr in presence of ATP by ADP-Glo assay

MV4-11 [2] = assay: Antiproliferative activity against human MV4-11 cells assessed as reduction in cell viability incubated for 72 hrs by CCK-8 assay; assay type: functional, cell-based; conditions: MV4-11, 72 h
Histone deacetylase 1 = Histone deacetylase 1 (Homo sapiens, UniProt Q13547)
Description: Inhibition of C-terminal 6His-FLAG-tagged human recombinant HDAC1 (1 to 482 residues) expressed in Sf9 cells using Ac-peptide as substrate preincubated for 15 mins followed by substrate addition and measured after 1 hr by plate reader analysis

[3] = Toxicity in BALB/c nude mouse xenografted with human MV4-11 cells assessed as change in body weight at 60 mg/kg, po administered only daily for 14 days and measured twice a week; assay type: organism-based; conditions: in vivo, 336 h, time 14 day
MV4-11 [4] = assay: Antitumor activity against human MV4-11 cells xenografted in BALB/c nude mouse assessed as tumor growth inhibition at 60 mg/kg, po administered once daily for 14 days relative to control; assay type: functional; conditions: MV4-11, 336 h, time 14 day, read-out: TGI
Histone deacetylase 8 = Histone deacetylase 8 (Homo sapiens, UniProt Q9BY41); assay: Inhibition of C-terminal His-tagged human recombinant HDAC8 (1 to 377 end residues) expressed in Sf9 cells using Ac-peptide as substrate incubated for 1 hr by plate reader analysis
[5] = target: Phosphatidylinositol 4,5-bisphosphate 3-kinase catalytic subunit beta isoform (Homo sapiens, UniProt P42338); assay: Inhibition of PI3Kbeta (unknown origin) using PIP2 as substrate incubated for 1 hr in presence of ATP by ADP-Glo assay
Histone deacetylase 11 = Histone deacetylase 11 (Homo sapiens, UniProt Q96DB2); assay: Inhibition of human HDAC11 (1 to 347 end residues) expressed in Sf9 cells using Ac-peptide as substrate incubated for 1 hr by plate reader analysis
DOHH-2 = assay: Antiproliferative activity against human DOHH-2 cells assessed as reduction in cell viability incubated for 72 hrs by CCK-8 assay; assay type: functional, cell-based; conditions: DOHH-2, 72 h
[6] = target: Phosphatidylinositol 4,5-bisphosphate 3-kinase catalytic subunit delta isoform (Homo sapiens, UniProt O00329); assay: Inhibition of PI3Kdelta (unknown origin) using PIP2 as substrate incubated for 1 hr in presence of ATP by ADP-Glo assay
Histone deacetylase 2 = Histone deacetylase 2 (Homo sapiens, UniProt Q92769); assay: Inhibition of C-terminal His6-FLAG-tagged human recombinant HDAC2 (1 to 488 residues) expressed in Sf9 cells using Ac-peptide as substrate preincubated for 15 mins followed by substrate addition and measured after 1 hr by plate reader analysis
HL-60 = assay: Antiproliferative activity against human HL-60 cells assessed as reduction in cell viability incubated for 72 hrs by CCK-8 assay; assay type: functional, cell-based; conditions: HL-60, 72 h
[7] = Terminal half life in ICR mouse at 60 mg/kg, po measured after 24 hrs by LC-MS/MS analysis; assay type: ADME, organism-based; conditions: in vivo, read-out: beta t1/2 (converted)
BaF3 = assay: Antiproliferative activity against mouse BaF3 cells assessed as reduction in cell viability incubated for 72 hrs by CCK-8 assay; assay type: functional, cell-based; conditions: BaF3, 72 h
[8] = Tmax in ICR mouse at 60 mg/kg, po measured after 24 hrs by LC-MS/MS analysis; assay type: ADME, organism-based; conditions: in vivo
[9] = target: Serine/threonine-protein kinase mTOR (Homo sapiens, UniProt P42345); assay: Inhibition of N-terminal FLAG-tagged recombinant human mTOR (1362 to end residues) using ULight-4E-BP1 (Thr37/46) peptide as substrate incubated for 30 mins in presence of ATP by LANCE ultra assay
Ramos = assay: Antiproliferative activity against human Ramos cells assessed as reduction in cell viability incubated for 72 hrs by CCK-8 assay
Raji = assay: Antiproliferative activity against human Raji cells assessed as reduction in cell viability incubated for 72 hrs by CCK-8 assay; assay type: functional, cell-based
[10] = AUC(0 to infinity) in ICR mouse at 60 mg/kg, po measured after 24 hrs by LC-MS/MS analysis; assay type: ADME, organism-based; conditions: ICR, in vivo
[11] = AUC(0 to infinity) in ICR mouse at 6 mg/kg, iv measured after 24 hrs by LC-MS/MS analysis; assay type: ADME, organism-based; conditions: in vivo
EL4 = assay: Antiproliferative activity against mouse EL4 cells assessed as reduction in cell viability incubated for 72 hrs by CCK-8 assay; assay type: functional, cell-based; conditions: EL4, 72 h
[12] = tested on: Friend leukemia cell line; assay: Antiproliferative activity against mouse Friend leukemia cell line assessed as reduction in cell viability incubated for 72 hrs by CCK-8 assay; assay type: functional, cell-based
[13] = Apparent volume of distribution in ICR mouse at 6 mg/kg, iv measured after 24 hrs by LC-MS/MS analysis; assay type: ADME, organism-based; conditions: in vivo
[14] = Terminal half life in ICR mouse at 6 mg/kg, iv measured after 24 hrs by LC-MS/MS analysis; assay type: ADME, organism-based; conditions: in vivo
MV4-11 [15] = assay: Antitumor activity against human MV4-11 cells xenografted in BALB/c nude mouse assessed as tumor growth inhibition at 10 mg/kg, ip administered once daily for 14 days relative to control; assay type: functional; conditions: MV4-11, 336 h, time 14 day, read-out: TGI
L1210 = assay: Antiproliferative activity against mouse L1210 cells assessed as reduction in cell viability incubated for 72 hrs by CCK-8 assay; assay type: functional, cell-based; conditions: L1210, 72 h
Histone deacetylase 4 = Histone deacetylase 4 (Homo sapiens, UniProt P56524); assay: Inhibition of N-terminal GST-tagged and C-terminal His-tagged human HDAC4 (627 to 1084 end residues) expressed in baculovirus infected Sf9 cells using Ac-peptide as substrate incubated for 1 hr by plate reader analysis
[16] = Toxicity in BALB/c nude mouse xenografted with human MV4-11 cells assessed as change in body weight at 10 to 20 mg/kg, ip administered only daily for 14 days and measured twice a week; assay type: organism-based; conditions: in vivo, 336 h, dose 10-20 mg/kg, time 14 day
NB-4 = assay: Antiproliferative activity against human NB4 cells assessed as reduction in cell viability incubated for 72 hrs by CCK-8 assay; assay type: functional, cell-based; conditions: NB-4, 72 h
MV4-11 [17] = assay: Antitumor activity against human MV4-11 cells xenografted in BALB/c nude mouse assessed as tumor growth inhibition at 20 mg/kg, ip administered once daily for 14 days relative to control; assay type: functional; conditions: MV4-11, 336 h, time 14 day, read-out: TGI
Histone deacetylase 3 = Histone deacetylase 3 (Homo sapiens, UniProt O15379); assay: Inhibition of HDAC3 (unknown origin)
[18] = AUC(0 to t) in ICR mouse at 60 mg/kg, po measured after 24 hrs by LC-MS/MS analysis; assay type: ADME, organism-based; conditions: in vivo
[19] = Antiproliferative activity against human MINO cells assessed as reduction in cell viability incubated for 72 hrs by CCK-8 assay
[20] = AUC(0 to t) in ICR mouse at 6 mg/kg, iv measured after 24 hrs by LC-MS/MS analysis; assay type: ADME, organism-based; conditions: in vivo
[21] = target: Protein deacetylase HDAC6 (Homo sapiens, UniProt Q9UBN7); assay: Inhibition of HDAC6 (unknown origin)
[22] = Cmax in ICR mouse at 60 mg/kg, po measured after 24 hrs by LC-MS/MS analysis; assay type: ADME, organism-based; conditions: in vivo
[23] = target: Phosphatidylinositol 4,5-bisphosphate 3-kinase catalytic subunit gamma isoform (Homo sapiens, UniProt P48736); assay: Inhibition of PI3Kgamma (unknown origin) using PIP2 as substrate incubated for 1 hr in presence of ATP by ADP-Glo assay
[24] = Oral bioavailability in ICR mouse at 60 mg/kg measured after 24 hrs by LC-MS/MS analysis; assay type: ADME, organism-based; conditions: in vivo
MV4-11 [25] = assay: Antiproliferative activity against human MV4-11 cells assessed as reduction in cell viability incubated for 72 hrs in presence of chidamide by CCK-8 assay; assay type: functional, cell-based; conditions: MV4-11, 72 h

Sequence of Phosphatidylinositol 4,5-bisphosphate 3-kinase catalytic subunit alpha isoform (P42336 whole entry, canonical isoform): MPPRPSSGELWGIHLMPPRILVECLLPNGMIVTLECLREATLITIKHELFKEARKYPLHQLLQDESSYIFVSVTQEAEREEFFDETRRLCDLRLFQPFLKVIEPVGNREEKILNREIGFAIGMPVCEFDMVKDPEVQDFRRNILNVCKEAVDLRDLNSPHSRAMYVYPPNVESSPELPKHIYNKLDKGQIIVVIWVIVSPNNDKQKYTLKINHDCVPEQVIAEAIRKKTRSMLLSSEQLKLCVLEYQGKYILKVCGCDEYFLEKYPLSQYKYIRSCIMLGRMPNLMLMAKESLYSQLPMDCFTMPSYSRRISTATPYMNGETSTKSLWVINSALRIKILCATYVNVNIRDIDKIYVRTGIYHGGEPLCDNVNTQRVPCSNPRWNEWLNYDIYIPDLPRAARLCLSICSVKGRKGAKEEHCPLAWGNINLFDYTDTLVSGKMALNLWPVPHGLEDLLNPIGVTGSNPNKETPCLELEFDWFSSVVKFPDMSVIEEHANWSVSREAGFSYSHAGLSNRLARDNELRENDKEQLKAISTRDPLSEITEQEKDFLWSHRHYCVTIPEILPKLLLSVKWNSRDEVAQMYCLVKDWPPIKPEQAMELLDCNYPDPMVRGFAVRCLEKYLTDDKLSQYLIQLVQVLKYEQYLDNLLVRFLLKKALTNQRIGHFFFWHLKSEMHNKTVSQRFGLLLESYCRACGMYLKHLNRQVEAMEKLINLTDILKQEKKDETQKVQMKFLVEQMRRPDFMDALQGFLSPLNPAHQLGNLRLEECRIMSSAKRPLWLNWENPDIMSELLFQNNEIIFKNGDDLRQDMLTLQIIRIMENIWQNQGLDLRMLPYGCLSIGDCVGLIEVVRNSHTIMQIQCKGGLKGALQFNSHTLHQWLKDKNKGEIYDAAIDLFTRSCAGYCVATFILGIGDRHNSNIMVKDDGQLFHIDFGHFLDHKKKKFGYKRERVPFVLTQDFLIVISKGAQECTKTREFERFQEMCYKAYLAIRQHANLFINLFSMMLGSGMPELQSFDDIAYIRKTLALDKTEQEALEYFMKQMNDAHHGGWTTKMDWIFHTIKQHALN
Sequence of Histone deacetylase 1 (Q13547 whole entry): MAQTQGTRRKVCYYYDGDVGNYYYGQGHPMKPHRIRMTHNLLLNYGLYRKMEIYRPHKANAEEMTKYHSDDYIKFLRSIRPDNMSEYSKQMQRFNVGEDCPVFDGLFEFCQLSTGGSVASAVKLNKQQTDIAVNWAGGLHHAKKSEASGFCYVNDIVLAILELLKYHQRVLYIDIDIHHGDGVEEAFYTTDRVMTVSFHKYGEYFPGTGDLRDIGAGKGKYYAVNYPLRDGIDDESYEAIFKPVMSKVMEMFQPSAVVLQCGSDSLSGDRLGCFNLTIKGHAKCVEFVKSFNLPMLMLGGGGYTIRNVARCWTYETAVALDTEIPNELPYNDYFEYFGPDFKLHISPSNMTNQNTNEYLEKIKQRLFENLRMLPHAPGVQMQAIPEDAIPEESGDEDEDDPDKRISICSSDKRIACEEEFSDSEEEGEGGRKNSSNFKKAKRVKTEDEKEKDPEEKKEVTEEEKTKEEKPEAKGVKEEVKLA
Sequence of Histone deacetylase 3 (O15379 whole entry): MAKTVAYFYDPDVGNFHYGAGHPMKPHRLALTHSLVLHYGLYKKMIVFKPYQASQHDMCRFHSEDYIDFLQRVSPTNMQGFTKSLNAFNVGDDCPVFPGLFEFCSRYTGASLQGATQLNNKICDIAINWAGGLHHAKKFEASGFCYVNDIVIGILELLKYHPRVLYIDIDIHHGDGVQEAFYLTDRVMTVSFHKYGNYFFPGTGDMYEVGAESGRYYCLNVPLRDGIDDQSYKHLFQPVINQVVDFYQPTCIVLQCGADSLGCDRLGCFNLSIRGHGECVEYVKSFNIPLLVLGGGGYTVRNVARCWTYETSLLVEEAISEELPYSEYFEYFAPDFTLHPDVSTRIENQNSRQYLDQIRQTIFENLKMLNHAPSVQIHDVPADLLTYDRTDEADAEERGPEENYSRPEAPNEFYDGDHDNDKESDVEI
Sequence of Histone deacetylase 4 (P56524 whole entry): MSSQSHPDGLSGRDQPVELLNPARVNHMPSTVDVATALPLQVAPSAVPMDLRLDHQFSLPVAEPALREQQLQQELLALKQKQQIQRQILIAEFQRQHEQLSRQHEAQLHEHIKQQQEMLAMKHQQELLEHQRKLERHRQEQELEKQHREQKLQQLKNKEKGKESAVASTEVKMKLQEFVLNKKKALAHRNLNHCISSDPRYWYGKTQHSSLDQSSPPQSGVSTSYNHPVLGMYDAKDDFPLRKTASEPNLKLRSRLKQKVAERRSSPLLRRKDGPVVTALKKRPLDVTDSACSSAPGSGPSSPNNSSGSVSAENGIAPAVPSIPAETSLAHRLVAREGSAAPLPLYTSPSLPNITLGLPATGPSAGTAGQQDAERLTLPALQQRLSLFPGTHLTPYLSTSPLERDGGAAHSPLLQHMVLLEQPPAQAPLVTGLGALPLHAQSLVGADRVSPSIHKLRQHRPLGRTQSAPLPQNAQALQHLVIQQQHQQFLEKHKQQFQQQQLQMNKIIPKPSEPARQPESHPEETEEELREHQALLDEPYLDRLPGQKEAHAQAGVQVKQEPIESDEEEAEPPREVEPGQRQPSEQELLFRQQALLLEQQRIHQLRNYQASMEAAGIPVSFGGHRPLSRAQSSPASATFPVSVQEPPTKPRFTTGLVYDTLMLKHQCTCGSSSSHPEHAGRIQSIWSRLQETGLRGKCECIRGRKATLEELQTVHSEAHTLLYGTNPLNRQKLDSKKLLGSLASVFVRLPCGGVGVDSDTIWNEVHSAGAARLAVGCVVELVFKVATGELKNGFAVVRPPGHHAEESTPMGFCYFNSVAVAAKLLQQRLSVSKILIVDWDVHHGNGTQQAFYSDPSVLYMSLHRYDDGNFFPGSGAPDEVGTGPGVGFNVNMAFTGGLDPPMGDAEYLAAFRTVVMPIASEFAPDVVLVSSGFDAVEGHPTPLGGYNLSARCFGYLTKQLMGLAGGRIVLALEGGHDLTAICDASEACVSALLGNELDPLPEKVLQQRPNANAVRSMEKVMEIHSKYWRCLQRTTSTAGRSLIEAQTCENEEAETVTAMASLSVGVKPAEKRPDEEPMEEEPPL
Sequence of Histone deacetylase 8 (Q9BY41 whole entry, canonical isoform): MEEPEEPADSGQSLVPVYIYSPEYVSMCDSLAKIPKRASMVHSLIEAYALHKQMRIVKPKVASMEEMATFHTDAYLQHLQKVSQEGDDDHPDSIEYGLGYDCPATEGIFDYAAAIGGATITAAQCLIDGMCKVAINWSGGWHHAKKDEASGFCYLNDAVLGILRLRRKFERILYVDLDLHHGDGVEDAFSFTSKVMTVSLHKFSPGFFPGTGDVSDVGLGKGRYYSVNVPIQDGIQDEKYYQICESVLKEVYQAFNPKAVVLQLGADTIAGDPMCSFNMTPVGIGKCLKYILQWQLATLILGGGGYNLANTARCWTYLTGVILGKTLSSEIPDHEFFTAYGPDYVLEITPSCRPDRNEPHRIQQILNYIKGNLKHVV
Sequence of Phosphatidylinositol 4,5-bisphosphate 3-kinase catalytic subunit delta isoform (O00329 whole entry, the tested form may be a part, canonical isoform): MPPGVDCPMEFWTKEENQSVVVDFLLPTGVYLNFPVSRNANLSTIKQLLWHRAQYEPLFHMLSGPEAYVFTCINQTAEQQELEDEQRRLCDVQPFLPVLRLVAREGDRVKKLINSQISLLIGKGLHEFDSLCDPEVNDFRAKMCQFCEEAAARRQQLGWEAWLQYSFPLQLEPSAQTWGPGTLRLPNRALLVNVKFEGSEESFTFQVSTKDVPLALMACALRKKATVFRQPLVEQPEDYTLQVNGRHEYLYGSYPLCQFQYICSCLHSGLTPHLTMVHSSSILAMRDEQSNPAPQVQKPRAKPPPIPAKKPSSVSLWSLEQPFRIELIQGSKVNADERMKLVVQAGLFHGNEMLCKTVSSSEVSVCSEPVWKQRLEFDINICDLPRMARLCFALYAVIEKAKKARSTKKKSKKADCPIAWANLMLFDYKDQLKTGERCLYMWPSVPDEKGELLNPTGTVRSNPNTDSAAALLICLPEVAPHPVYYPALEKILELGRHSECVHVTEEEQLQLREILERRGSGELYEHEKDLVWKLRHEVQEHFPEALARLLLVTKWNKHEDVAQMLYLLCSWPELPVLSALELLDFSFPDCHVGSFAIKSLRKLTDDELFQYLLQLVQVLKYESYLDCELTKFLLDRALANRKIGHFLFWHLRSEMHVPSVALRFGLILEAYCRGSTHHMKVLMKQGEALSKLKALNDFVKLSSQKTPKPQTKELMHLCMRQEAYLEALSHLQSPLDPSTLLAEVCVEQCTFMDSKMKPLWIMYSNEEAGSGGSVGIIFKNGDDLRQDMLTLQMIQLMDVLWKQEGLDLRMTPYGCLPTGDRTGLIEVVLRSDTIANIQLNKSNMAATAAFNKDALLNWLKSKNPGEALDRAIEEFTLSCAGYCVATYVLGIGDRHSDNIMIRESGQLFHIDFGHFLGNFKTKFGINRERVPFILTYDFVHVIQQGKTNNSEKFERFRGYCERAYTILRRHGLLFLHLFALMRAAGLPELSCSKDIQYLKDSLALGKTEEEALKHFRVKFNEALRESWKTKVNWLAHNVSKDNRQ
Sequence of Histone deacetylase 2 (Q92769 whole entry, the tested form may be a part): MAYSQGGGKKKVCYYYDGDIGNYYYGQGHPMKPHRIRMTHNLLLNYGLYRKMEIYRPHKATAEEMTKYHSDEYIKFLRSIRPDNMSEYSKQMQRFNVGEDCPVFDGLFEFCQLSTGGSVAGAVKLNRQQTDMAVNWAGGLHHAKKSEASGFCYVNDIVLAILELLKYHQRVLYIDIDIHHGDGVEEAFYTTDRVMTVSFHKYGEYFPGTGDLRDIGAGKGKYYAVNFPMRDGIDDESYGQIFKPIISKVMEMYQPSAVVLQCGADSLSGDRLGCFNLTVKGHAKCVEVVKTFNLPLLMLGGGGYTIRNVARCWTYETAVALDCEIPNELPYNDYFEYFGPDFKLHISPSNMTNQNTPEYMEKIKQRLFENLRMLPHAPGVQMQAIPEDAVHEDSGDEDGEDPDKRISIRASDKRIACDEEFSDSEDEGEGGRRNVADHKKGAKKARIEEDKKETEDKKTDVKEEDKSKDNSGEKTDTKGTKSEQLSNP

SMILES: COc1ncc(-c2cc(OCCCCCC(=O)Nc3ccccc3N)c3ncnc(C)c3c2)cc1NS(=O)(=O)c1ccc(F)cc1F
- IC50 [1]: 0.21 nM
- IC50 (MV4-11 [2]): 10 nM
- IC50 (Histone deacetylase 1): 1310 nM

SMILES: COc1ncc(-c2cc(OCCOc3ccc(C(=O)Nc4ccccc4N)cc3)c3ncnc(C)c3c2)cc1NS(=O)(=O)c1ccc(F)cc1F
- IC50 [1]: 0.58 nM
- IC50 (MV4-11 [2]): 410 nM
- IC50 (Histone deacetylase 1): 56 nM

SMILES: COc1ncc(-c2cc(OCCCOc3ccc(C(=O)Nc4ccccc4N)cc3)c3ncnc(C)c3c2)cc1NS(=O)(=O)c1ccc(F)cc1F
- IC50 [1]: 0.39 nM
- IC50 (MV4-11 [2]): 390 nM
- IC50 (Histone deacetylase 1): 95 nM

SMILES: COc1ncc(-c2cc(OCCCCCCCC(=O)Nc3ccccc3N)c3ncnc(C)c3c2)cc1NS(=O)(=O)c1ccc(F)cc1F
- IC50 [1]: 0.28 nM
- IC50 (MV4-11 [2]): 20 nM
- IC50 (Histone deacetylase 1): 525 nM

SMILES: COc1ncc(-c2cc(OCCCc3ccc(C(=O)Nc4ccccc4N)cc3)c3ncnc(C)c3c2)cc1NS(=O)(=O)c1ccc(F)cc1F
- Activity [3]: Non-Toxic
- inhibition in vivo at 60 mg/kg (MV4-11 [4]): 64.3%
- IC50 (Histone deacetylase 8): > 10000 nM
- IC50 [5]: 0.62 nM
- IC50 (Histone deacetylase 11): 3520 nM
- IC50 (DOHH-2): 5300 nM
- IC50 [6]: 1.8 nM
- IC50 (Histone deacetylase 2): 84.5 nM
- IC50 (HL-60): 330 nM
- half-life [7]: 4.46 h
- IC50 (BaF3): 80 nM
- Tmax [8]: 0.25 h
- IC50 [9]: 9.5 nM
- IC50 (Ramos): 5000 nM
- IC50 (Raji): 4600 nM
- AUC(0-inf) [10]: 1710 ng·h/mL
- IC50 [1]: 0.26 nM
- AUC [11]: 4930 ng·h/mL
- IC50 (EL4): 840 nM
- IC50 [12]: 320 nM
- Vz [13]: 4.27 L/kg
- beta t1/2 [14]: 2.43 h
- inhibition in vivo at 10 mg/kg (MV4-11 [15]): 50%
- IC50 (MV4-11 [2]): 50 nM
- IC50 (L1210): 850 nM
- IC50 (Histone deacetylase 4): > 10000 nM
- Activity [16]: Non-Toxic
- IC50 (NB-4): 370 nM
- inhibition in vivo at 20 mg/kg (MV4-11 [17]): 60.7%
- IC50 (Histone deacetylase 3): 6.6 nM
- AUC(0-t) at 24 h [18]: 1230 ng·h/mL
- IC50 [19]: 6600 nM
- AUC(0-t) at 24 h [20]: 4880 ng·h/mL
- IC50 [21]: > 10000 nM
- Cmax [22]: 306 ng/mL
- IC50 (Histone deacetylase 1): 28 nM
- IC50 [23]: 15 nM
- bioavailability [24]: 3.5%

SMILES: Cc1nc(NC(=O)N2CCC[C@H]2C(N)=O)sc1-c1ccnc(C(C)(C)C(F)(F)F)c1 [ALPELISIB]
- IC50 (MV4-11 [2]): 3500 nM
- IC50 (MV4-11 [25]): 190 nM

SMILES: Nc1cc(C(F)(F)F)c(-c2cc(N3CCOCC3)nc(N3CCOCC3)n2)cn1 [BUPARLISIB]
- IC50 (DOHH-2): 1400 nM
- IC50 (HL-60): 1200 nM
- IC50 (BaF3): 4800 nM
- IC50 (Ramos): 5400 nM
- IC50 (Raji): 990 nM
- IC50 (EL4): 860 nM
- IC50 [12]: 810 nM
- IC50 (MV4-11 [2]): 560 nM
- IC50 (L1210): 370 nM
- IC50 (NB-4): 750 nM
- IC50 [19]: 1500 nM

SMILES: O=C(CCCCCCC(=O)Nc1ccccc1)NO [VORINOSTAT]
- IC50 (BaF3): 800 nM

Source: ChEMBL document CHEMBL5537133, “Rational design and optimization of novel 4-methyl quinazoline derivatives as PI3K/HDAC dual inhibitors with benzamide as zinc binding moiety for the treatment of acute myeloid leukemia” (Eur J Med Chem, 2024)
